Read-outs that look alike come from different tables or passages of the source. A value given as a limit tells only on which side of the number the result lay.

In patent US20050085447A1, “Pyrido[3,4-d]pyrimidine derivatives as matrix metalloproteinase-13 inhibitors” (Warner-Lambert Company LLC, priority 2003, published 2005) one finds IC50 data, which are given here for nine molecules.

What all share (assay type): biochemical
The target in experiment [1] is T1, MMP-7 full-length (Homo sapiens, UniProt P09237).
T1 construct: MMP-3 catalytic domain, MMP-7 full-length, MMP-8 full-length
T1 sequence (P09237 95-267): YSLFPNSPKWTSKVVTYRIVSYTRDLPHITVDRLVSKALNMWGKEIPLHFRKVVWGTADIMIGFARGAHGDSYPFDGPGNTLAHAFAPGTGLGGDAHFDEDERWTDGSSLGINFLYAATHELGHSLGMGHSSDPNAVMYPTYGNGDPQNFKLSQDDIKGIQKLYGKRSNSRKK
The experiment can be described thus: Thiopeptolide substrate hydrolysis inhibition assay, MMP-7 full-length. The conditions noted are these: full-length enzyme; read-out: MMP-7FL IC50. An excerpt:
(§1) The assay methods of Biological Examples 1-4 measure the amount by which a test compound reduces the hydrolysis of a thiopeptolide substrate catalyzed by a matrix metalloproteinase enzyme or catalytic domain thereof. It has been shown previously by Ye Qi-Zhuang, Hupe D., and Johnson L. (Current Medicinal Chemistry, 1996;3:407-418) that inhibitor activity against a catalytic domain of an MMP is predictive of the inhibitor activity against the respective full-length MMP enzyme. The methods described below for the inhibition of MMP-13 may also be adapted and used to determine the ability of the compounds of Formula I to inhibit other matrix metalloproteases such as MMP-1, MMP-2, MMP-3, MMP-7, MMP-8, MMP-9, MMP-12, MMP-14, MMP-17, and the like.
(§2) Thiopeptolide substrates show virtually no decomposition or hydrolysis at or below neutral pH in the absence of a matrix metalloproteinase enzyme. A typical thiopeptolide substrate commonly utilized for assays is Ac-Pro-Leu-Gly-thioester-Leu-Leu-Gly-OEt. A 100 μL assay mixture will contain 50 mM of N-2-hydroxyethylpiperazine-N′-2-ethanesulfonic acid buffer (“HEPES,” pH 7.0), 10 mM CaCl2, 100 μM thiopeptolide substrate, and 1 mM 5,5′-dithio-bis-(2-nitro-benzoic acid) (DTNB). […] The change in absorbance at 405 nm is monitored on a Thermo Max microplate reader (molecular Devices, Menlo Park, Calif.) at room temperature (22° C.). The calculation of the amount of hydrolysis of the thiopeptolide substrate is based on E412=13600 M^−1 cm^−1 for the DTNB-derived product 3-carboxy-4-nitrothiophenoxide. Assays are carried out with and without matrix metalloproteinase inhibitor compounds, and the amount of hydrolysis is compared for a determination of inhibitory activity of the test compounds.
(§3) Test compounds were evaluated at various concentrations in order to determine their respective IC50 values, the micromolar concentration of compound required to cause a 50% inhibition of catalytic activity of the respective enzyme.
(§4) Some representative compounds of Formula I have been evaluated for their ability to inhibit MMP-13, MMP-1FL, MMP-3CD, MMP-7FL, MMP-8FL, MMP-9FL, MMP-12CD, MMP-14CD, and/or MMP-17CD, wherein FL means full-length enzyme and CD means a catalytic domain of the full-length enzyme. Test compounds can be evaluated at various concentrations in order to determine their respective IC50 values, the micromolar concentration of compound required to cause a 50% inhibition of the hydrolytic activity of the respective enzyme.
(§5) Certain compounds of Formula I have also been assayed with MMP-1 full-length, MMP-3 catalytic domain, MMP-7 full-length, MMP-8 full-length, MMP-9 full-length, MMP-12 catalytic domain, MMP-14 catalytic domain, and MMP-17 catalytic domain. […] In Biological Table 2, the compound example numbers for the Compound Examples are indicated in the column labelled “Ex. No.”

The target of experiment [2] is T2, MMP-9 full-length (Homo sapiens, UniProt P14780).
T2 construct: MMP-8 full-length, MMP-9 full-length, MMP-12 catalytic domain
Put plainly: Thiopeptolide substrate hydrolysis inhibition assay, MMP-9 full-length. Particulars: full-length enzyme; read-out: MMP-9FL IC50.
Excerpt: as §1, §2, §3, §4, §5

For experiment [3], the target named is T3, MMP-3 catalytic domain (Homo sapiens, UniProt P08254).
T3 construct: MMP-1 full-length, MMP-3 catalytic domain, MMP-7 full-length
The experiment can be described thus: Thiopeptolide substrate hydrolysis inhibition assay, MMP-3 catalytic domain. Particulars: MES buffer pH 6.0, read-out: MMP-3CD IC50.
Excerpt: as §1, §2, §3
It should be appreciated that the assay buffer used with MMP-3CD was 50 mM N-morpholinoethane sulfonate (“MES”) at pH 6.0 rather than the HEPES buffer at pH 7.0 described above.
as §4, §5

Experiment [4] concerns the target T4, MMP-14 catalytic domain (Homo sapiens, UniProt P50281).
T4 construct: MMP-14 catalytic domain, and MMP-17 catalytic domain
The experiment can be described thus: Thiopeptolide substrate hydrolysis inhibition assay, MMP-14 catalytic domain. Particulars: read-out: MMP-14CD IC50.
Excerpt: as §1, §2, §3, §4, §5

The target in experiment [5] is T5, MMP-1 full-length (Homo sapiens, UniProt P03956).
T5 construct: have also been assayed with MMP-1 full-length
T5 sequence (P03956 100-469): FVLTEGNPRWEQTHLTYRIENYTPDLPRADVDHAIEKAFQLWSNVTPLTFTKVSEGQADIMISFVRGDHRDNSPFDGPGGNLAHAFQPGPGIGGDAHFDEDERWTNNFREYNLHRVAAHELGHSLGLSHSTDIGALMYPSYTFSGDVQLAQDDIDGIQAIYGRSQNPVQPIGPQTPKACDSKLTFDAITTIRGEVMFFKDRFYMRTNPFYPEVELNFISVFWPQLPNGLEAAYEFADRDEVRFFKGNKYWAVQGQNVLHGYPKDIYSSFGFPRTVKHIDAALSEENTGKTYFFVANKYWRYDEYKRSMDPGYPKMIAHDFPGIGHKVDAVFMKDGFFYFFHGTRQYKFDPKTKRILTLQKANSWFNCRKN
The experiment can be described thus: Thiopeptolide substrate hydrolysis inhibition assay, MMP-1 full-length. Particulars: full-length enzyme; read-out: MMP-1FL IC50.
Excerpt: as §1, §2, §3, §4, §5

Experiment [6] addresses T6, MMP-17 catalytic domain (Homo sapiens, UniProt Q9ULZ9).
T6 construct: MMP-14 catalytic domain, and MMP-17 catalytic domain
T6 sequence (Q9ULZ9 126-295 limits assumed): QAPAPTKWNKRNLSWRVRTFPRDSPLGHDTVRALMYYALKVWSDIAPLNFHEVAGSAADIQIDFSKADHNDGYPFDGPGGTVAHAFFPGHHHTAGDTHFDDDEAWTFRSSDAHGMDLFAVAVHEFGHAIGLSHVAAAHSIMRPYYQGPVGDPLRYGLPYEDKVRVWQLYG
The experiment can be described thus: Thiopeptolide substrate hydrolysis inhibition assay, MMP-17 catalytic domain. The conditions noted are these: read-out: MMP-17 CD IC50.
Excerpt: as §1, §2, §3, §4, §5

Experiment [7] concerns the target MMP-13 catalytic domain (Homo sapiens, UniProt P45452). The experiment can be described thus: Thiopeptolide substrate hydrolysis inhibition assay, MMP-13 catalytic domain. The text has this:
The methods described below for the inhibition of MMP-13 may also be adapted and used to determine the ability of the compounds of Formula I to inhibit other matrix metalloproteases such as MMP-1, MMP-2, MMP-3, MMP-7, MMP-8, MMP-9, MMP-12, MMP-14, MMP-17, and the like.
Thiopeptolide substrates show virtually no decomposition or hydrolysis at or below neutral pH in the absence of a matrix metalloproteinase enzyme. A typical thiopeptolide substrate commonly utilized for assays is Ac-Pro-Leu-Gly-thioester-Leu-Leu-Gly-OEt. A 100 μL assay mixture will contain 50 mM of N-2-hydroxyethylpiperazine-N′-2-ethanesulfonic acid buffer (“HEPES,” pH 7.0), 10 mM CaCl2, 100 μM thiopeptolide substrate, and 1 mM 5,5′-dithio-bis-(2-nitro-benzoic acid) (DTNB). […] Assays are carried out with and without matrix metalloproteinase inhibitor compounds, and the amount of hydrolysis is compared for a determination of inhibitory activity of the test compounds.

Experiment [8] has as its target T7, MMP-8 full-length (Homo sapiens, UniProt P22894).
T7 construct: MMP-7 full-length, MMP-8 full-length, MMP-9 full-length
Put plainly: Thiopeptolide substrate hydrolysis inhibition assay, MMP-8 full-length. The conditions noted are these: full-length enzyme; read-out: MMP-8FL IC50.
Excerpt: as §1, §2, §3, §4, §5

The mark [9] stands for this setting: MMP-13 catalytic domain, read-out: MMP-13CD IC50.

T3 sequence (P08254 100-272 limits assumed): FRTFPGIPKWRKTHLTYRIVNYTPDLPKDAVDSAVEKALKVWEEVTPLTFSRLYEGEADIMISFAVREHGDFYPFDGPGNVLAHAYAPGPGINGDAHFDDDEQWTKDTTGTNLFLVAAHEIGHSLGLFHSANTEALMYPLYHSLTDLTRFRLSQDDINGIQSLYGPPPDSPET
T7 sequence (P22894 101-467): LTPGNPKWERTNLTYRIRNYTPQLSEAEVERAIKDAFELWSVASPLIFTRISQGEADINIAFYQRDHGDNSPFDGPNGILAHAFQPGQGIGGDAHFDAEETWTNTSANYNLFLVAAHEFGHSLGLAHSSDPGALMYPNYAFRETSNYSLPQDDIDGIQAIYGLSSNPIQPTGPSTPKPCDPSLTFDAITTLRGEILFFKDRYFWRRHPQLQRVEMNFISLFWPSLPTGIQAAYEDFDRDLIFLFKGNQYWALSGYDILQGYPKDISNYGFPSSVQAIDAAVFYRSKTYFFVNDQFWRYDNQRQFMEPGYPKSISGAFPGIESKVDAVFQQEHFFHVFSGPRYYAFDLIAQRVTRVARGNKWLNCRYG
T2 sequence (P14780 94-707): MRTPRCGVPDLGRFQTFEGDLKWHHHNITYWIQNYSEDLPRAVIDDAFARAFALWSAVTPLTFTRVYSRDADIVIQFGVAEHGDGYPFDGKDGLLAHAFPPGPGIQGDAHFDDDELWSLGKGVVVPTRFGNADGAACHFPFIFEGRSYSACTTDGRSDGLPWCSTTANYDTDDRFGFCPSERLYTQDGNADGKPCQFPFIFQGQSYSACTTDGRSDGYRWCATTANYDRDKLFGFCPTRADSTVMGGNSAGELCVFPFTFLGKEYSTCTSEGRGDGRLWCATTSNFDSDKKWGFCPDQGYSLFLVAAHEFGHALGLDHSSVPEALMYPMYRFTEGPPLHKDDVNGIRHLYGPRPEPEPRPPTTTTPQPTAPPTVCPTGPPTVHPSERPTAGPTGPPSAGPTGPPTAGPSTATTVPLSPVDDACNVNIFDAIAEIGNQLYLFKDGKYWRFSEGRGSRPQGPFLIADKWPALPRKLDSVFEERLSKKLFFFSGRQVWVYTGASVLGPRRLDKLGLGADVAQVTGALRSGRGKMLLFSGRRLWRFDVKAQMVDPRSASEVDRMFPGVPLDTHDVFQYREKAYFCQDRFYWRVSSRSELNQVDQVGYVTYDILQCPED

As to `O=C(O)c1ccc(Cn2cnc3cnc(C(=O)NCc4ccc(F)c(F)c4)cc3c2=O)cc1` [Compound Example 14, 4-[6-(3,4-difluoro-benzylcarbamoyl)-4-oxo-4H-pyrido[3,4-d]pyrimidin-3-ylmethyl]-benzoic acid], the IC50 (usually the midpoint of a concentration-inhibition curve) is above 100 µM in experiment [1]; above 100 µM in experiment [2]; 42 µM in experiment [3]; above 100 µM in experiment [4]; above 100 µM in experiment [5]; above 100 µM in experiment [6]. For the same molecule, the IC50 was 0.0053 µM in experiment [7] (setting [9]) and above 100 µM in experiment [8].

For the molecule `O=C(O)c1ccc(Cn2cnc3cnc(C(=O)NCc4ccc(Cl)cc4)cc3c2=O)cc1` [Compound Example 4, 4-[6-(4-chloro-benzylcarbamoyl)-4-oxo-4H-pyrido [3,4-d]pyrimidin-3-ylmethyl]-benzoic acid], the IC50 in experiment [1], in experiment [2], in experiment [3], in experiment [4], in experiment [5] and in experiment [6] was above 100 µM in each case. The IC50 in experiment [7] was 0.01 µM.

Regarding `COc1cc(CNC(=O)c2cc3c(=O)n(Cc4ccc(C(=O)O)cc4)cnc3cn2)ccc1O` [Compound Example 15, 4-[6-(4-hydroxy-3-methoxy-benzylcarbamoyl)-4-oxo-4H-pyrido[3,4-d]pyrimidin-3-ylmethyl]-benzoic acid], the IC50 is above 30 µM in experiment [1]; above 100 µM in experiment [2]; above 100 µM in experiment [3]; above 30 µM in experiment [4]; above 100 µM in experiment [5]; above 100 µM in experiment [6]. Besides, the IC50 in experiment [7] (setting [9]) is 0.02 µM; in experiment [8], above 100 µM.

Regarding `COc1cccc(CNC(=O)c2cc3c(=O)n(Cc4ccc(C(=O)O)cc4)cnc3cn2)c1` [Compound Example 2, 4-[6-(3-methoxy-benzylcarbamoyl)-4-oxo-4H-pyrido[3,4-d]pyrimidin-3-ylmethyl]-benzoic acid], the IC50 is above 100 µM in experiment [1]; above 100 µM in experiment [2]; 14 µM in experiment [3]; above 100 µM in experiment [4]; above 100 µM in experiment [5]; above 100 µM in experiment [6]. The figures for the IC50 in experiment [7] (setting [9]) and in experiment [8] were 0.0013 µM and above 100 µM, respectively.

Take `O=C(O)c1ccc(Cn2cnc3cnc(C(=O)NCc4cccc(C(F)(F)F)c4)cc3c2=O)cc1` [Compound Example 13, 4-[4-oxo-6-(3-trifluoromethyl-benzylcarbamoyl)-4H-pyrido[3,4-d]pyrimidin-3-ylmethyl]-benzoic acid]: the IC50 in experiment [1] is above 100 µM; in experiment [2], above 100 µM; in experiment [3] it was 48 µM; in experiment [4] it was above 100 µM; in experiment [5] it was above 100 µM; in experiment [6] it was above 100 µM. Also, the 50% inhibitory concentration (IC50) in experiment [7] is 0.0026 µM.

With `O=C(O)c1ccc(Cn2cnc3cnc(C(=O)NCc4cccc(F)c4)cc3c2=O)cc1` [Compound Example 11, 4-[6-(3-fluoro-benzylcarbamoyl)-4-oxo-4H-pyrido[3,4-d]pyrimidin-3-ylmethyl]-benzoic acid], the IC50 in experiment [1], in experiment [2], in experiment [3], in experiment [4], in experiment [5] and in experiment [6] was above 100 µM throughout. Besides, the IC50 was 0.017 µM in experiment [7] and above 100 µM in experiment [8].

Turning to `O=C(O)c1ccc(Cn2cnc3cnc(C(=O)NCc4ccc(C(F)(F)F)cc4)cc3c2=O)cc1` [Compound Example 12, 4-[4-oxo-6-(4-trifluoromethyl-benzylcarbamoyl)-4H-pyrido[3,4-d]pyrimidin-3-ylmethyl]-benzoic acid], the IC50 in experiment [1], in experiment [2], in experiment [3], in experiment [4], in experiment [5] and in experiment [6] was above 100 µM in each case. Besides, the values for the IC50 in experiment [7] and in experiment [8] were 0.097 µM and above 100 µM, respectively.

Turning to `O=C(O)c1ccc(Cn2cnc3cnc(C(=O)NCc4cccnc4)cc3c2=O)cc1` [Compound Example 3, 4-{4-oxo-6-[(pyridin-3-ylmethyl)-carbamoyl]-4H-pyrido[3,4-d]pyrimidin-3-ylmethyl}-benzoic acid], the IC50 in experiment [1], in experiment [2], in experiment [3], in experiment [4], in experiment [5] and in experiment [6] was above 100 µM throughout. Further, the figures for the IC50 in experiment [7] (setting [9]) and in experiment [8] were 0.032 µM and above 100 µM, respectively.

As to `O=C(O)c1ccc(Cn2cnc3cnc(C(=O)NCc4cccc(Cl)c4)cc3c2=O)cc1` [Compound Example 10, 4-[6-(3-chloro-benzylcarbamoyl)-4-oxo-4H-pyrido[3,4-d]pyrimidin-3-ylmethyl]-benzoic acid], the IC50 in experiment [1] is above 100 µM; in experiment [2], above 100 µM; in experiment [3], 41 µM; in experiment [4], above 100 µM; in experiment [5], above 100 µM; in experiment [6], above 100 µM. In experiment [8], the IC50 is above 100 µM.
